The compounds below were run on rumen inoculum from fistulated cows (assay: In vitro batch culture incubation of a Senecio PA mixture with rumen inoculum). Details: incubation with rumen inoculum up to 20 h.
Type: in vitro ADME
`C/C=C1/C[C@@H](C)[C@@](C)(O)C(=O)OC/C2=C/CN(C)CC[C@@H](OC1=O)C2=O` [senkirkine] was tested, and the “degradation rate in rumen incubation (half-life ranking)” value (shortened to “degradation rate in rumen incubation”) was “slower degradation rates”.
For `C=C1C/C(=C/C)C(=O)O[C@@H]2CCN3CC=C(COC(=O)[C@]1(C)O)[C@H]23` [seneciphylline], the “degradation rate in rumen incubation” value was “fastest degradation”.
For `C/C=C1/C[C@@H](C)[C@@](C)(O)C(=O)OCC2=CCN3CC[C@@H](OC1=O)[C@@H]23` [senecionine], the “degradation rate in rumen incubation” value was “fastest degradation”.
For `C/C=C1/C[C@@]2(CO)O[C@@]2(C)C(=O)OCC2=CCN3CC[C@@H](OC1=O)[C@@H]23` [erucifoline], the “degradation rate in rumen incubation” value was “ranged in the middle”.

From paper PMC9413219 (Journal of Agricultural and Food Chemistry, 2022)
